Values quoted from earlier work in patent US9775855B2, “Compositions comprising macrolide and tetracycline and their uses” (priority 2011, dated 2017).
Like-named read-outs stand apart in the source and are kept apart here. Values belong to the molecule of their own block, whether it stands above or below them.

Experiments:
[1] = individuals treated for acne for an average of 9 months
[2] = not given; remark: listed apart in the source
[3] = room temperature

solubility in water: freely soluble
Structure (SMILES): NNC(=O)c1ccncc1 [Isoniazid, 4-pyridinecarboxylic acid, hydrazide]

Structure (SMILES): CN(C)c1ccc(O)c2c1C[C@H]1C[C@H]3[C@H](N(C)C)C(O)=C(C(N)=O)C(=O)[C@@]3(O)C(O)=C1C2=O [Minocycline]
frequency of adverse events [1]: one in a million
penetration of the cerebral spinal fluid (CSF) ([2]; human beings, compared with doxycycline and other tetracyclines): better than doxycycline and other tetracyclines
crossing the blood-brain barrier ([2]; in vivo): capable of crossing the blood-brain barrier

stability [3]: stable at room temperature
solubility in water: sparingly soluble
Structure (SMILES): NC(=O)c1cnccn1 [Pyrazinamide, pyrazinecarboxamide]

solubility in water (at neutral pH): very slightly soluble
Structure (SMILES): CO[C@H]1/C=C/O[C@@]2(C)Oc3c(C)c(O)c4c(O)c(c(/C=N/N5CCN(C)CC5)c(O)c4c3C2=O)NC(=O)/C(C)=C\C=C\[C@H](C)[C@H](O)[C@@H](C)[C@@H](O)[C@@H](C)[C@H](OC(C)=O)[C@@H]1C [Rifampin, 3-[[(4-methyl-1-piperazinyl)imino]-methyl]-rifamycin]
